Patent publication US4363805A, “Aminodesoxy-1.4;3.6-dianhydrohexitol nitrates and pharmaceutical composition” (Firma Willmar Schwabe, priority 1980, dated 1982)

Assays:
[1] = test system: isolated guinea pig hearts; assay: Experiments on Langendorff hearts (coronary flowthrough, inotropism, frequency); settings: Cavia porcellus, read-out: flowthrough, percentage change with regard to the initial value
Method: After reaching the stationary state in the 30th minute, the hearts were each perfused with 50 ml. tyrode solution with a content of test substance of, in each case, 25 μg./ml. Each test substance was tested on 3-6 hearts.
In each case, there was measured the inotropism, the flowthrough and the frequency, whereby the values given in Table I are average values of the percentage changes in comparison with the initial values.

mongrel cats = assay: Inotropic and heart-circulatory effectiveness on narcotised cats, intravenous; format: in vivo, cat; settings: 6 animals
female NMRI-albino mice = assay: Acute toxicity, intravenous, mice; format: in vivo; settings: within 24 hours
[2] = Acute toxicity, intravenous, mice; format: in vivo; settings: mouse, in vivo; intravenous, within 24 hours; read-out: Evaluated LD50-range
[3] = 0.25 mg/kg i.v., before administration

CN(CC=Cc1ccccc1)[C@H]1CO[C@H]2[C@@H]1OC[C@@H]2O[N+](=O)[O-] [Example 24, 5-(N-Cinnamyl-N-methylamino)-5-desoxy-1.4;3.6-dianhydro-L-iditol 2-nitrate]
activation at 25 µg/mL [1]: 200%

O=[N+]([O-])O[C@H]1CO[C@H]2[C@@H]1OC[C@@H]2NCCc1ccccc1 [Example 27, 5-(2-Phenylethylamino)-5-desoxy-1.4;3.6-dianhydro-L-iditol 2-nitrate]
activation at 25 µg/mL [1]: 67.2%

O=[N+]([O-])O[C@H]1CO[C@H]2[C@@H]1OC[C@@H]2NCCCCc1ccccc1 [Example 29, 5-(4-Phenylbutylamino)-5-desoxy-1.4;3.6-dianhydro-L-iditol 2-nitrate]
blood pressure before (mongrel cats; [3]): 106.8 mm.Hg | dp/dt (inotropism) before (mongrel cats; [3]): 6480 mm.Hg/sec | heart frequency before (mongrel cats; [3]): 209.0 min⁻¹ | blood pressure WD (mongrel cats; 0.25 mg/kg i.v.): 3.2 min | blood pressure after (mongrel cats; 0.25 mg/kg i.v.): 91.3 mm.Hg | blood pressure Δ (mongrel cats; 0.25 mg/kg i.v.): -15.5 mm.Hg | dp/dt (inotropism) after (mongrel cats; 0.25 mg/kg i.v.): 6000 mm.Hg/sec | dp/dt (inotropism) Δ (mongrel cats; 0.25 mg/kg i.v.): -480 mm.Hg/sec | dp/dt WD (mongrel cats; 0.25 mg/kg i.v.): 1.6 min | heart frequency after (mongrel cats; 0.25 mg/kg i.v.): 204.3 min⁻¹ | heart frequency Δ (mongrel cats; 0.25 mg/kg i.v.): -4.7 min⁻¹ | blood pressure WD (mongrel cats; 0.50 mg/kg i.v.): 4.1 min | blood pressure after (mongrel cats; 0.50 mg/kg i.v.): 91.3 mm.Hg | blood pressure Δ (mongrel cats; 0.50 mg/kg i.v.): -22.0 mm.Hg | dp/dt (inotropism) after (mongrel cats; 0.50 mg/kg i.v.): 6000 mm.Hg/sec | dp/dt (inotropism) Δ (mongrel cats; 0.50 mg/kg i.v.): -1040 mm.Hg/sec | dp/dt WD (mongrel cats; 0.50 mg/kg i.v.): 8.2 min | heart frequency after (mongrel cats; 0.50 mg/kg i.v.): 204.7 min⁻¹ | heart frequency Δ (mongrel cats; 0.50 mg/kg i.v.): -7.3 min⁻¹ | blood pressure WD (mongrel cats; 1.00 mg/kg i.v.): 11.2 min | blood pressure after (mongrel cats; 1.00 mg/kg i.v.): 90.7 mm.Hg | blood pressure Δ (mongrel cats; 1.00 mg/kg i.v.): -34.0 mm.Hg | dp/dt (inotropism) after (mongrel cats; 1.00 mg/kg i.v.): 5000 mm.Hg/sec | dp/dt (inotropism) Δ (mongrel cats; 1.00 mg/kg i.v.): -2360 mm.Hg/sec | dp/dt WD (mongrel cats; 1.00 mg/kg i.v.): 25.5 min | heart frequency after (mongrel cats; 1.00 mg/kg i.v.): 197.7 min⁻¹ | heart frequency Δ (mongrel cats; 1.00 mg/kg i.v.): -11.7 min⁻¹ | blood pressure WD (mongrel cats; 2.50 mg/kg i.v.): > 10 min | blood pressure after (mongrel cats; 2.50 mg/kg i.v.): 80.8 mm.Hg | blood pressure Δ (mongrel cats; 2.50 mg/kg i.v.): -48.7 mm.Hg | dp/dt (inotropism) after (mongrel cats; 2.50 mg/kg i.v.): 3920 mm.Hg/sec | dp/dt (inotropism) Δ (mongrel cats; 2.50 mg/kg i.v.): -3580 mm.Hg/sec | dp/dt WD (mongrel cats; 2.50 mg/kg i.v.): > 10 min | heart frequency after (mongrel cats; 2.50 mg/kg i.v.): 182.0 min⁻¹ | heart frequency Δ (mongrel cats; 2.50 mg/kg i.v.): -23.0 min⁻¹ | Frequency of death (female NMRI-albino mice; 50 mg/kg i.v.): 5/6 | Frequency of death (female NMRI-albino mice; 100 mg/kg i.v.): 5/6 | Frequency of death (female NMRI-albino mice; 200 mg/kg i.v.): 3/3 | LD50 at 24 h [2]: < 50 mg/kg
